Source: the NIST ThermoML archive (doi:10.1021/acs.jced.6b00606)

Key:
[1] = molar heat capacity at constant pressure; xn = mol fraction of the nth substance listed; conditions: 100 kPa, Liquid
[2] = excess molar enthalpy (molar enthalpy of mixing); xn = mol fraction of the nth substance listed; conditions: 308.15 K, Liquid, Calvet calorimetry

O=C1CCCCCC1 [cycloheptanone] + C1CCOCC1
molar heat capacity at constant pressure [J/K/mol], [1], Extra sensitive DSC
Conditions | 293.15 K | 298.15 K | 303.15 K | 308.15 K
x2 = 0.1121 | 196.3 | 197.43 | 198.93 | 200.52
x2 = 0.1652 | 194.07 | 195.27 | 196.82 | 198.49
x2 = 0.2103 | 192.18 | 193.43 | 195.03 | 196.74
x2 = 0.2652 | 189.86 | 191.15 | 192.76 | 194.53
x2 = 0.3187 | 187.56 | 188.91 | 190.53 | 192.28
x2 = 0.3562 | 185.92 | 187.28 | 188.93 | 190.71
x2 = 0.4036 | 183.78 | 185.22 | 186.84 | 188.65
x2 = 0.4562 | 181.33 | 182.82 | 184.44 | 186.27
x2 = 0.4921 | 179.6 | 181.13 | 182.76 | 184.65
x2 = 0.5341 | 177.51 | 179.07 | 180.74 | 182.63
x2 = 0.5896 | 174.63 | 176.29 | 177.96 | 179.93
x2 = 0.6231 | 172.8 | 174.52 | 176.25 | 178.18
x2 = 0.6741 | 169.93 | 171.69 | 173.45 | 175.49
x2 = 0.7256 | 166.92 | 168.74 | 170.53 | 172.58
x2 = 0.7769 | 163.72 | 165.58 | 167.38 | 169.46
x2 = 0.8321 | 160.14 | 162 | 163.83 | 165.92
x2 = 0.8754 | 157.18 | 159.06 | 160.84 | 162.89
x2 = 0.9365 | 152.82 | 154.62 | 156.31 | 158.31

[2], 1e-07 kPa
Conditions | excess molar enthalpy [kJ/mol]
x2 = 0.0898 | 0.0549
x2 = 0.1356 | 0.0749
x2 = 0.1846 | 0.0896
x2 = 0.2366 | 0.104
x2 = 0.2882 | 0.114
x2 = 0.3312 | 0.119
x2 = 0.3942 | 0.123
x2 = 0.4412 | 0.125
x2 = 0.4895 | 0.124
x2 = 0.5326 | 0.123
x2 = 0.5842 | 0.12
x2 = 0.6335 | 0.116
x2 = 0.6875 | 0.109
x2 = 0.7289 | 0.102
x2 = 0.7789 | 0.092
x2 = 0.8278 | 0.0774
x2 = 0.8799 | 0.0612
x2 = 0.9199 | 0.0434

O=C1CCCCCC1 [cycloheptanone] + C1COCCO1
molar heat capacity at constant pressure [J/K/mol], [1], Extra sensitive DSC
Conditions | 293.15 K | 298.15 K | 303.15 K | 308.15 K
x2 = 0.0943 | 199.36 | 200.68 | 202.21 | 203.95
x2 = 0.1587 | 198.02 | 199.53 | 201.25 | 203.14
x2 = 0.2016 | 197.04 | 198.63 | 200.42 | 202.4
x2 = 0.2574 | 195.59 | 197.23 | 199.23 | 201.2
x2 = 0.3025 | 194.28 | 196 | 197.99 | 200.03
x2 = 0.3412 | 193.02 | 194.78 | 196.83 | 198.81
x2 = 0.3986 | 190.94 | 192.67 | 194.91 | 196.9
x2 = 0.4215 | 189.98 | 191.84 | 194.03 | 196.02
x2 = 0.4796 | 187.51 | 189.28 | 191.5 | 193.56
x2 = 0.5213 | 185.45 | 187.35 | 189.58 | 191.52
x2 = 0.5743 | 182.67 | 184.52 | 186.79 | 188.83
x2 = 0.6142 | 180.46 | 182.26 | 184.49 | 186.55
x2 = 0.6687 | 177.12 | 178.92 | 181.02 | 183.16
x2 = 0.7149 | 174.07 | 175.86 | 177.95 | 180.03
x2 = 0.7623 | 170.7 | 172.51 | 174.5 | 176.57
x2 = 0.8169 | 166.69 | 168.4 | 170.24 | 172.25
x2 = 0.8654 | 162.9 | 164.56 | 166.21 | 168.11
x2 = 0.9149 | 158.86 | 160.38 | 161.87 | 163.59

[2], 100 kPa
Conditions | excess molar enthalpy [kJ/mol]
x2 = 0.0726 | 0.0304
x2 = 0.1258 | 0.0496
x2 = 0.1769 | 0.0643
x2 = 0.2252 | 0.0783
x2 = 0.2786 | 0.0891
x2 = 0.3286 | 0.0979
x2 = 0.3746 | 0.103
x2 = 0.4282 | 0.107
x2 = 0.4712 | 0.108
x2 = 0.5232 | 0.106
x2 = 0.5725 | 0.103
x2 = 0.6235 | 0.0975
x2 = 0.6762 | 0.0889
x2 = 0.7256 | 0.0799
x2 = 0.7716 | 0.0694
x2 = 0.8125 | 0.0589
x2 = 0.8682 | 0.0423
x2 = 0.9129 | 0.0293

O=C1CCCCC1 [cyclohexanone] + C1CCOCC1
molar heat capacity at constant pressure [J/K/mol], [1], Extra sensitive DSC
Conditions | 293.15 K | 298.15 K | 303.15 K | 308.15 K
x2 = 0.0995 | 176.32 | 178.62 | 180.9 | 183.36
x2 = 0.1452 | 175.99 | 178.41 | 181.03 | 183.58
x2 = 0.1965 | 175.76 | 178.4 | 181.02 | 183.49
x2 = 0.2456 | 175.65 | 178.24 | 180.93 | 183.53
x2 = 0.2863 | 175.47 | 178.06 | 180.64 | 183.3
x2 = 0.3321 | 175.13 | 177.68 | 180.22 | 182.87
x2 = 0.3845 | 174.53 | 177.03 | 179.51 | 182.09
x2 = 0.4215 | 173.95 | 176.42 | 178.92 | 181.49
x2 = 0.4723 | 172.86 | 175.29 | 177.75 | 180.31
x2 = 0.5241 | 171.58 | 173.99 | 176.42 | 178.98
x2 = 0.5796 | 169.75 | 172.22 | 174.56 | 177.13
x2 = 0.6153 | 168.49 | 170.9 | 173.23 | 175.87
x2 = 0.6654 | 166.35 | 168.77 | 171.21 | 173.73
x2 = 0.7132 | 164.19 | 166.61 | 168.92 | 171.57
x2 = 0.7698 | 161.26 | 163.68 | 165.99 | 168.56
x2 = 0.8265 | 158.18 | 160.54 | 162.79 | 165.3
x2 = 0.8732 | 155.48 | 157.76 | 159.9 | 162.31
x2 = 0.9245 | 152.46 | 154.55 | 156.51 | 158.75

[2], 100 kPa
Conditions | excess molar enthalpy [kJ/mol]
x2 = 0.0989 | 0.041
x2 = 0.1475 | 0.0584
x2 = 0.1926 | 0.0712
x2 = 0.2415 | 0.086
x2 = 0.2953 | 0.0968
x2 = 0.3416 | 0.106
x2 = 0.3952 | 0.112
x2 = 0.4426 | 0.115
x2 = 0.4956 | 0.116
x2 = 0.5425 | 0.114
x2 = 0.5982 | 0.107
x2 = 0.641 | 0.102
x2 = 0.6825 | 0.0948
x2 = 0.7333 | 0.0835
x2 = 0.7865 | 0.0697
x2 = 0.8359 | 0.0553
x2 = 0.8875 | 0.0389
x2 = 0.9299 | 0.0241

O=C1CCCCC1 [cyclohexanone] + C1COCCO1
Conditions | excess molar enthalpy, 100 kPa [kJ/mol] | molar heat capacity at constant pressure, 293.15 K [J/K/mol] | molar heat capacity at constant pressure, 298.15 K [J/K/mol] | molar heat capacity at constant pressure, 303.15 K [J/K/mol] | molar heat capacity at constant pressure, 308.15 K [J/K/mol]
[1], x2 = 0.0799 | – | 173.61 | 175.65 | 177.71 | 179.75
[1], x2 = 0.1351 | – | 171.94 | 173.94 | 175.96 | 177.96
[1], x2 = 0.1965 | – | 170.17 | 172.12 | 174.08 | 176.03
[1], x2 = 0.2378 | – | 169.01 | 170.93 | 172.86 | 174.77
[1], x2 = 0.2874 | – | 167.66 | 169.54 | 171.43 | 173.28
[1], x2 = 0.3258 | – | 166.66 | 168.49 | 170.34 | 172.17
[1], x2 = 0.3642 | – | 165.66 | 167.46 | 169.27 | 171.07
[1], x2 = 0.4195 | – | 164.26 | 166.02 | 167.78 | 169.52
[1], x2 = 0.4625 | – | 163.21 | 164.92 | 166.62 | 168.33
[1], x2 = 0.5061 | – | 162.15 | 163.82 | 165.49 | 167.15
[1], x2 = 0.5543 | – | 161.01 | 162.63 | 164.25 | 165.88
[1], x2 = 0.6023 | – | 159.9 | 161.47 | 163.05 | 164.62
[1], x2 = 0.6487 | – | 158.83 | 160.36 | 161.9 | 163.44
[1], x2 = 0.6946 | – | 157.82 | 159.29 | 160.78 | 162.27
[1], x2 = 0.7412 | – | 156.79 | 158.22 | 159.66 | 161.12
[1], x2 = 0.7845 | – | 155.87 | 157.25 | 158.66 | 160.06
[1], x2 = 0.8398 | – | 154.71 | 156.04 | 157.39 | 158.74
[1], x2 = 0.8975 | – | 153.56 | 154.82 | 156.1 | 157.39
[2], x2 = 0.0792 | 0.0817 | – | – | – | –
[2], x2 = 0.1286 | 0.124 | – | – | – | –
[2], x2 = 0.1749 | 0.16 | – | – | – | –
[2], x2 = 0.2236 | 0.192 | – | – | – | –
[2], x2 = 0.2743 | 0.22 | – | – | – | –
[2], x2 = 0.3289 | 0.245 | – | – | – | –
[2], x2 = 0.3729 | 0.262 | – | – | – | –
[2], x2 = 0.4298 | 0.279 | – | – | – | –
[2], x2 = 0.4715 | 0.287 | – | – | – | –
[2], x2 = 0.5242 | 0.293 | – | – | – | –
[2], x2 = 0.5735 | 0.293 | – | – | – | –
[2], x2 = 0.6199 | 0.289 | – | – | – | –
[2], x2 = 0.7182 | 0.262 | – | – | – | –
[2], x2 = 0.7628 | 0.241 | – | – | – | –
[2], x2 = 0.8193 | 0.205 | – | – | – | –
[2], x2 = 0.8672 | 0.165 | – | – | – | –
[2], x2 = 0.9173 | 0.113 | – | – | – | –
